A short description of data set [1]: Kinematic viscosity at 25° C. (ASTM D-445-97). Type of data set: physicochemical. The protocol:
Kinematic viscosity was tested at 25° C. using ASTM (American Society of Testing and Materials, West Conshohocken, Pa., United States of America) Official Method No. D-445-97 (1997), the contents of which are incorporated herein by reference. Color was measured using ASTM D-1209-97 (1997), acid value was determined using ASTM D-972-95 (1995) and hydroxyl number was determined using a modified version of AOCS (American Oil Chemists Society, Champaign, Ill., United States of America) Official Method No. Cd-13-60 (1997), the contents of which are incorporated herein by reference. Odor was determined using a subjective olfactory assessment.

Data set [2] in a line: Spreading characteristics on WHATMAN filter paper (50 microliters). The class given is physicochemical. The note with it: for Spreadibility (1 minute) / Spreadibility (3 minutes) / Spreadibility (5 minutes): 50 microliters on filter paper. The protocol:
The spreading characteristics of fluid used in personal care products are an effective predictor of “skin feel.” To test the spreading characteristics a four inch WHATMAN® filter paper was positioned horizontally over an eight ounce jar. Fifty microliters of each product were then pipetted onto the center of the filter paper. The spreading area of the liquid was then measured at intervals of one, three, and five minutes. Faster spreading products will have a higher spreading area at each time interval.

For `CC(C)C(=O)OCC(C)(C)COC(=O)C(C)C` [NDI], the “Viscosity at 25° C.” value in data set [1] is 3.5 cSt. Also, in data set [2], the “Spreadibility (1 minute)” value is 3.18 cm, the “Spreadibility (3 minutes)” value is on record as 3.63 cm and the “Spreadibility (5 minutes)” value stood at 3.88 cm.

With `CCCCC(=O)OCC(C)(C)COC(=O)CCCC` [NDP, neopentyl glycol dipentanoate], the “Viscosity at 25° C.” value in data set [1] is listed as 5.1 cSt. The viscosity in data set [1] (stated in description) stood at 5.1 centistokes. Besides, in data set [2], the “Spreadibility (1 minute)” value is 3.08 cm, the “Spreadibility (3 minutes)” value is given as 3.48 cm and the “Spreadibility (5 minutes)” value is 3.85 cm. For the same compound, the “spreading (in words)” value in data set [2] (stated in description) is on record as “rapidly spreading”.

On to `C[Si]1(C)O[Si](C)(C)O[Si](C)(C)O[Si](C)(C)O1` [Example D4, reference compound], for which, in data set [2], the “Spreadibility (1 minute)” value is 3.10 cm, the “Spreadibility (3 minutes)” value worked out at 3.50 cm and the “Spreadibility (5 minutes)” value is on record as 3.60 cm.

As for `CCC(CC)C(=O)OCC(C)(C)COC(=O)C(CC)CC` [ND2EB, neopentyl glycol di-2-ethylbutyrate], the “Viscosity at 25° C.” value in data set [1] is 7.6 cSt. In addition, in data set [2], the “Spreadibility (1 minute)” value is on record as 3.00 cm, the “Spreadibility (3 minutes)” value is given as 3.43 cm and the “Spreadibility (5 minutes)” value amounted to 3.63 cm.

With `CCCCCC(=O)OCCOCCOC(=O)CCCCC` [DEGDH, diethylene glycol dihexanoate], the “Viscosity at 25° C.” value in data set [1] came out at 14.4 cSt. In data set [2], the “Spreadibility (1 minute)” value came out at 2.98 cm, the “Spreadibility (3 minutes)” value came to 3.43 cm and the “Spreadibility (5 minutes)” value is 3.68 cm.

Regarding `C[Si]1(C)O[Si](C)(C)O[Si](C)(C)O[Si](C)(C)O[Si](C)(C)O1` [Example D5, reference compound], in data set [1], the “Viscosity at 25° C.” value is 4.0 cSt. In data set [2], the “Spreadibility (1 minute)” value worked out at 2.90 cm, the “Spreadibility (3 minutes)” value turned out to be 3.40 cm and the “Spreadibility (5 minutes)” value was found to be 3.60 cm. In data set [2] (listed as D5 Fluid), the “Spreadibility (1 minute)” value is 2.9 cm, the “Spreadibility (3 minutes)” value stood at 3.4 cm and the “Spreadibility (5 minutes)” value is 3.6 cm.

The values are drawn from patent US20050260150A1, “Polyol polyester-containing personal care products that do not contain low viscosity silicone fluids” (INOLEX INVESTMENT CORP., priority 2004, published 2005).
